3 compounds from patent US8975259B2, “Compositions and methods for inhibiting G protein signaling” (University of Rochester, priority 2007, dated 2015) can be followed below.

For one data set, the system named is PLCβ2. Briefly: Gβ1γ2-dependent activation of purified PLCβ2. The data set is classed as biochemical. As for the experimental part: (§1) Purified PLCβ2 (0.25 ng) was assayed in the presence (▴) or absence (▪) of 100 nM purified Gβ1γ2. […] Assays contained 10 ng of purified p101/p110 PI3Kγ heterodimer with or without 100 nM purified Gβ1γ2. Left panel: (▴) 100 nM Gβ1γ2 or (▪) no βγ. […] M119 or M201 and 25 nM purified GRK2 were added simultaneously to 250 nM biotinylated Gβ1γ2 (bGβ1γ2) immobilized on streptavidin agarose. GRK2 was detected with antibody to GRK2. Data are representative (mean ±SEM, except D) repeated at least three times each. […] 30 nM bGβ1γ2 was incubated with either 30 nM PLCβ2 or PLCβ3 in the presence or absence of M119 or M201 for 16 h at 4° C. before precipitation with avidin agarose and detection with PLCβ2,or Gβ antibodies. […] Same as 4E with PLCβ3.
(§2) The ability of NSC119910 analogs to selectively modulate activation PLC-β2 and -β3 was analyzed. In this assay, PLC-β2 and PLC-β3 were purified and PLC enzymatic activity was measured in the presence or absence of purified βy and in the presence or absence of analog.
(§3) Nevertheless, M119 and M201 were tested in in vitro reconstitution assays of Gβγ-dependent activation of PLCβ2, PLCβ3 and PI3Kγ and binding to GRK2. […] These are only two of multiple diverse compounds identified, indicating potential for multiple modes of Gβγ-dependent target modulation by these small molecules.

For data set [1], the system named is differentiated HL60 cells. Description: fMLP-induced chemotaxis of differentiated HL60 cells (Boyden chamber). The data set is classed as cell-based, human. As to conditions: 10 μM compound, 250 nM fMLP; result in words. As for the experimental part:
(§4) Same as A with purified human neutrophils.
Differentiated HL60 cells (200 k) were pretreated with 10 μM concentrations of the indicated compound, challenged with 250 nM fMLP, and assayed for chemotaxis in a Boyden chamber for 1 h at 37° C. […] Chemotaxis was quantified as above by subtracting out background cells (0-10 cells) in the absence of chemoattractant to obtain total transmigrated cells (−100 cells GM-CSF+vehicle) and represented as the percentage of GM-CSF-treated control cells. No statistically significant difference from control was seen by ANOVA. […] Primary human neutrophils were isolated from whole blood to ≧80% purity. Neutrophils (2×10^5) were pretreated with gallein (10 μM), M119 (10 μM), M119B (10 μM), or wortmannin (wtmn.) (1 μM) and then challenged with 250 nM fMLP or 10 nM IL-8 to evaluate chemotaxis in a Boyden chamber for 1 h at 37° C. […] NS, not statistically different from control. […] Primary human neutrophils were isolated and treated (250 nM fMLP±gallein) as described above. Chemotaxis was quantified as above by subtracting out background cells to obtain total transmigrated cells and represented as the percentage of fMLP-treated control cells. Data shown are pooled from two independent experiments, each in duplicate, ±S.E.M.
(§5) Chemotaxis was assayed using a Boyden chamber (Neuro Probe, Gaithersburg, Md.) using 3-μm polyvinylpyrrolidone-free polycarbonate filters (Neuro Probe). HL60 cells (differentiated for 4 days) were washed with and resuspended in HBSS containing 1% bovine serum albumin to a final concentration of 1×10^6 cells/ml. Primary human neutrophils were washed and resuspended in NaCl buffer (140 mM NaCl, 4 mM KCl, 10 mM D-glucose, 10 mM HEPES, pH 7.4, 1 mM MgCl2, and 1 mM CaCl2) to a final concentration of 1×10^6 cells/mi. Chemoattractant [1 μM granulocyte-macrophage-colony stimulating factor (GM-CSF), 10 nM IL-8, or 250 nM fMLP; Sigma Aldrich] was added to the bottom chamber in HBSS containing 1% bovine serum albumin.

For the next data set, the system named is PLCβ3. Description: Gβ1γ2-dependent activation of purified PLCβ3. It counts as biochemical. The settings on record: for effect on Gβ1γ2-dependent activation of PLCβ3: result in words. On the procedure: as §1, §2, §3
A further data set deals with T1, Gβγ-GRK2 interaction (UniProt P54311+P63212).
T1 construct: made in house; host or cells: bGβ1γ2: Sf9 insect cells
T1 sequence (P54311 whole entry): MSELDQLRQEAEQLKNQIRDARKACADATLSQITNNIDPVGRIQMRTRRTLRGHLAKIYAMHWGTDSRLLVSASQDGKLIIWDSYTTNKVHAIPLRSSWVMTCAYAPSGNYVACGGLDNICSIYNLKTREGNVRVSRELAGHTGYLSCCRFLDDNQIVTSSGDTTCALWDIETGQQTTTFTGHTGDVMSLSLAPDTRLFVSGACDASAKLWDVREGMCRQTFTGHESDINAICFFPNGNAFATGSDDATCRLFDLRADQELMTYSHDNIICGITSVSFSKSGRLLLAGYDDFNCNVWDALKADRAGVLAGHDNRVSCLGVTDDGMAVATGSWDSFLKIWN
T1 sequence (P63212 2-68 limits assumed): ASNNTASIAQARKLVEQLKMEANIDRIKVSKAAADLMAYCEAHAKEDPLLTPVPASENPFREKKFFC
Briefly: GRK2 binding to biotinylated Gβ1γ2 on streptavidin agarose.

Data set [2] in a line: Toxicity on repeated daily dosing in animals. The data set is classed as in vivo.
Data set [3] relates to differentiated HL60 cells. Briefly: Chemokinesis (fMLP in upper and lower Boyden chambers). The settings on record: fMLP in both chambers; result in words. It counts as cell-based, human. On the procedure: as §4
as §5, with “albumin. Cell suspensions (0.2×10^6 cells/well) were added to the top wells of the Boyden chamber and allowed to migrate for 1 h at 37° C. […] Chemotactic HL60 cells were scored by counting three microscope fields and subtracting the number of cells from fMLP wells as background. […] For all the small molecules, effects of the compounds on chemokinesis was analyzed by measuring chemotaxis in the presence of 250 nM fMLP in both the upper and lower chambers of the Boyden Chamber and measuring changes in transwell migration. […]” for “albumin.”

Data set [4] has as its system primary human neutrophils. Briefly: IL-8-induced chemotaxis of primary human neutrophils (Boyden chamber). The settings on record: 10 μM compound, 10 nM IL-8; result in words. It counts as cell-based. On the procedure: (§6) Differentiated HL60 cells (200 k) were pretreated with 10 μM concentrations of the indicated compound, challenged with 250 nM fMLP, and assayed for chemotaxis in a Boyden chamber for 1 h at 37° C. […] Chemotaxis was quantified as above by subtracting out background cells (0-10 cells) in the absence of chemoattractant to obtain total transmigrated cells (−100 cells GM-CSF+vehicle) and represented as the percentage of GM-CSF-treated control cells. No statistically significant difference from control was seen by ANOVA. […] Primary human neutrophils were isolated from whole blood to ≧80% purity. […] Chemotaxis was quantified as above by subtracting out background cells to obtain total transmigrated cells and represented as the percentage of fMLP-treated control cells. […]
(§7) Chemotaxis was assayed using a Boyden chamber (Neuro Probe, Gaithersburg, Md.) using 3-μm polyvinylpyrrolidone-free polycarbonate filters (Neuro Probe). […] Chemotactic HL60 cells were scored by counting three microscope fields and subtracting the number of cells from fMLP wells as background. […] For all the small molecules, effects of the compounds on chemokinesis was analyzed by measuring chemotaxis in the presence of 250 nM fMLP in both the upper and lower chambers of the Boyden Chamber and measuring changes in transwell migration. […]

In data set [5] the test system is GFP-PHAkt translocation (PI3Kγ activation) in HL60 cells. Description: fMLP-dependent GFP-PH-Akt translocation in differentiated HL60 cells. As to conditions: 10 μM compound; result in words. The data set is classed as cell-based, human.
In data set [6] the test system is differentiated HL60 cells. Briefly: GM-CSF-induced chemotaxis of differentiated HL60 cells (Boyden chamber). It counts as cell-based, human. The settings on record: 10 μM compound, 1 μM GM-CSF; result in words. On the procedure: as §6, §7

Entries after “also recorded” stand apart in the source; their conditions may differ.

Take `O=C(O)C1CCCCC1c1c2ccc(=O)cc-2oc2cc(O)ccc12` (centres unmarked) [Compound M119B]: the “effect on Gβ1γ2-dependent activation of PLCβ2” value in the data set with PLCβ2 (result in words) is given as “did not have effects”. For the same compound, in data set [1], the “effect on fMLP-induced chemotaxis” value is on record as “no effect on migration”. For the same compound, the “effect on Gβ1γ2-dependent activation of PLCβ3” value in the data set on PLCβ3 is recorded as “did not have effects”. The “effect on GRK2 binding to bGβ1γ2” value at Gβγ-GRK2 interaction (result in words) is given as “did not have effects”.
Consider `O=C(O)C1CCCCC1c1c2ccc(=O)c(O)c-2oc2c(O)c(O)ccc12` (centres unmarked) [Compound M119, cyclohexanecarboxylic acid, 2-(4,5,6-trihydroxy-3-oxo-3H-xanthen-9-yl)-(9cl)], for which the toxicity result in data set [2] (100 mg/kg/day intraperitoneal, one week) is “no overt toxicity was observed”. Besides, the IC50 in the data set with PLCβ2 (read-out: IC50 for attenuation of Gβ1γ2-dependent activation of PLCβ2) is 3000 nM; with PLCβ3 (Table 19, effector IC50, read-out: PLCb3), 3000 nM; on Gβγ-GRK2 interaction, approximately 5 µM. Also, the “effect on fMLP-induced chemotaxis” value in data set [1] was “significantly blunted migration; also recorded: inhibited”. In addition, the effect on chemokinesis result in [3] was “Neither M119 nor gallein had any effects”. Moreover, the “effect on IL-8 regulated chemotaxis” value in data set [4] is “blocked”. In addition, the “effect on fMLP-dependent translocation of GFP-PHAkt to the membrane” value in [5] is reported as “inhibited”. In addition, the “effect on GM-CSF-induced chemotaxis” value in data set [6] is given as “Neither M119 nor gallein blocked”. In addition, the “effect on Gβ1γ2-dependent activation of PLCβ3” value in the data set on PLCβ3 is on record as “attenuated”.
In the case of `O=C(O)c1ccccc1-c1c2ccc(=O)c(O)c-2oc2c(O)c(O)ccc12` (racemic) [Gallein], in data set [2] (10, 30 and 100 mg/kg/day daily injections, two weeks), the “toxicity in intact animals and histology of lung, liver, brain, heart and kidney” value was “nor any overt toxicity”. Besides, the “effect on fMLP-induced chemotaxis” value in data set [1] is “inhibited”. In addition, the effect on chemokinesis result in [3] is “Neither M119 nor gallein had any effects”. For the same compound, the “effect on IL-8 regulated chemotaxis” value in [4] is listed as “blocked”. Further, the “effect on fMLP-dependent translocation of GFP-PHAkt to the membrane” value in data set [5] is on record as “inhibited”. For the same compound, in [6], the “effect on GM-CSF-induced chemotaxis” value was “Neither M119 nor gallein blocked”.
